Data taken from patent US11535579B2, “Hydrofluoroolefin ethers, compositions, apparatuses and methods for using same” (3M INNOVATIVE PROPERTIES COMPANY, priority 2017, dated 2022).

Tests used:
[1] = Kinematic viscosity (AVS 350 Viscosity Timer, glass viscometer); type: physicochemical
Method: Kinematic viscosity of PE-1 was measured using a Viscosity Timer available under the trade designation “AVS 350” from SI Analytics, College Station, Tex., USA. For temperatures below 0° C., a temperature control bath available from Lawler Manufacturing Corporation, Edison, N.J., USA was used. The viscometer measurements stand and glass viscometer were immersed in a temperature-controlled liquid bath filled with NOVEC 7500. The Lawler temperature bath was fitted with a copper tubing coil for liquid nitrogen cooling with fine temperature control provided by the bath's electronic temperature control heater. The fluid was mechanically stirred to provide uniform temperature in the bath. The bath controls temperature within 0.1° C., measured by the built-in RTD temperature sensor. The sample liquid was added to the viscometer between the two fill lines etched on the viscometer. The AVS 350 automatically pumped the sample fluid above the upper timing mark then released the fluid followed by measurement of efflux times between the upper and lower timing marks. The fluid meniscus was detected by optical sensors as it passed each timing mark. The sample was drawn up and measured repeatedly, averaging multiple measurements.
The glass viscometers were calibrated using certified kinematic viscosity standard fluids available from Cannon Instrument Company, State College, Pa., USA to obtain a calibration constant (centistokes per second) for each viscometer.
The measured kinematic viscosity (centistokes) which is the average efflux time (seconds)×constant (centistokes/second) is presented in Table 3. The data summarized in Table 3 indicates a favorable low temperature liquid range, which renders these materials useful in heat transfer applications.

[2] = Thermal stability: stirred 24 h with or without adsorbent, purity by GC-FID; type: physicochemical
Method: The samples were stirred for 24 h at the temperatures indicated in Table 4 and then analyzed for purity by GC-FID.

SMILES: FC(F)(F)C(F)(F)C(F)(F)OC/C=C/COC(F)(F)C(F)(F)C(F)(F)F [PE-1, (E)-1,4-bis(perfluoropropoxy)but-2-ene]
- Kinematic Viscosity ([1]; 0.0 °C): 3.16 cSt
- Kinematic Viscosity ([1]; −10.0 °C): 4.28 cSt
- Kinematic Viscosity ([1]; −30.0 °C): 10.24 cSt
- Kinematic Viscosity ([1]; −40.0 °C): 17.44 cSt
- Kinematic Viscosity ([1]; −50.0 °C): 28.23 cSt
- Kinematic Viscosity ([1]; −60.0 °C): 59.59 cSt
- Purity (thermal stability) ([2]; 4 Angstrom Molecular Sieves 100 mg, 60 °C): 91.9%
- Purity (thermal stability) ([2]; Activated Carbon 100 mg, 60 °C): 91.8%
- Purity (thermal stability) ([2]; Basic Alumina 100 mg, 60 °C): 92.0%
- Purity (thermal stability) ([2]; K2CO3 100 mg, 60 °C): 91.6%
- Purity (thermal stability) ([2]; No Adsorbent, 25 °C): 91.7%
- Purity (thermal stability) ([2]; No Adsorbent, 60 °C): 91.7%
- Purity (thermal stability) ([2]; Silica Gel 100 mg, 60 °C): 91.7%
